Columns and labels:
[1] = tested on: Ca^+2 influx in Jurkat cells (clone E6-1); experiment: Calcium influx assay (thapsigargin-stimulated, Fluo-3); assay type: cell-based; conditions: Homo sapiens; Jurkat cells clone E6-1, thapsigargin 100 nM, 10 min preincubation
Protocol: Jurkat cells (clone E6-1) are pelleted by centrifugation, washed twice, and resuspended in RPMI 1640 containing, […], 1 % fetal calf serum, 3 μM Fluo-3-AM, 13.5 μl/ml Pluronic F 127 (Molecular Probes) and incubated for 1 hour at 37° C. The loaded cells are washed twice in Hanks Balanced Salt Solution containing 10 mM HEPES. The cells are resuspended in HBSS containing 10 mM HEPES, and dispensed into 96-well Dynatech black microtiter plates at 2×10^5 cells/well. The cells are preincubated with compounds for 10 minutes at room temperature. Baseline fluorescence of unstimulated cells is measured using an SLT fluorescent microtiter plate reader with an excitation wavelength of 495 nm and emission wavelength of 538 nm. Thapsigargin is then added to a final concentration of 100 nM. Following a 5 minute incubation, fluorescence of thapsigargin treated cells is measured. Delta fluorescence values are determined by subtracting baseline fluorescence values from thapsigargin induced fluorescence values.

[2] = tested on: IL-2 production in CD3+/CD4+ cells; experiment: IL-2 production assay, Protocol A (ionomycin and PMA as stimuli); assay type: cell-based; conditions: human CD3+/CD4+ cells, ionomycin 1 μg/ml and PMA 10 ng/ml, 16 hr
Protocol: Protocol A (ionomycin and […] as stimuli)
Human peripheral blood is obtained from healthy donors by venipuncture and the mononuclear cell fraction is prepared by centrifugation on Ficoll Hypaque (Phamacia) density gradients. Contaminating red blood cells are lysed and the CD3+/CD4+ cells are purified using immunoaffinity columns (R&D Systems or CellPro). The cells are resuspended and dispensed in 96 well microtiter plates. Test compounds are added to the cells approximately 15 minutes prior to stimulation with ionomycin (1 μg/ml) and PMA (10 ng/ml). The final volume of the assay is 100 μL. Following a 16 hr incubation at 37° C., the cells are pelleted by centrifugation, and the supernatants are collected and stored at -70° C. until assayed for IL-2 using a commercial ELISA kit (Genzyme).

[3] = tested on: IL-2 production in T lymphocytes (CD3+/CD4+ cells); experiment: IL-2 production assay, Protocol B (antiCD3/antiCD28 as stimuli); assay type: cell-based; conditions: T-lymphocyte; human T lymphocytes, anti-CD3/anti-CD28 and goat anti-mouse coated beads, 16 hour
Protocol: Protocol B (antiCD3/antiCD28 as stimuli)
Human peripheral blood is obtained from healthy donors by venipuncture and the mononuclear cell fraction is prepared by centrifugation on Ficoll Hypaque (Phamacia) density gradients. Contaminating red blood cells are lysed and the CD3+/CD4+ cells are purified using immunoaffinity columns (R&D Systems or CellPro). The T lymphocytes are plated at 1-1.5×10^5 cells/well in a 96 well microtiter plate, and incubated with serial dilutions of compounds for 20 minutes at 37° C. The T cells are activated by the addition of 0.6 ng/ml anti-CD3 (Immunotech), 500 ng/ml anti-CD28 (Biodesign) and 2×10^5 goat anti-mouse coated beads (Dynal). The final volume of the assay is 200 μl. Following a 16 hour incubation at 37° C., the cells are pelleted, and the supernatants are removed and collected and stored at -70° C. until assayed for interleukin-2 using a commercial ELISA kit (R&D Systems).

[4] = tested on: allogeneic cell transplant response (T-cell-mediated immune response, popliteal lymph node); experiment: Allogeneic cell transplant response in mice (popliteal lymph node weight); assay type: in vivo, mice (DBA donors, C57B1/6 recipients); conditions: dosed one hour prior to cell injection and daily thereafter, ~four days
Excerpt: Allogeneic Cell Transplant Response in Mice
The ability of cells to recognize other cells from self or from another genetically different individual (non-self) is an important property in maintaining the integrity of tissue and organ structure. The allogeneic cell transplant response is therefore an important model for studies of transplant rejection. This T-cell-mediated immune response can be induced in adult mice by the injection of lymphocytes from an histoincompatible mouse strain. This response is characterized by T cell proliferation which is limited to the popliteal lymph node that receives drainage from the footpad area. No in vitro system exists that can exactly duplicate completely this in vivo response. The assay is commonly used to evaluate new and novel potential immunosuppressive molecules.
Experiments are conducted using male or female mice (20-26 grams). Any histoincompatible mouse strains suffice for donor and recipient populations. Typically DBA mice are used as donors and C57B1/6 mice are used as recipients. A minimum of 1 week stabilization and conditioning period is usually required before use of the mice. Each study utilizes approximately 36 recipient mice divided into groups of 6.
Donor mice are sacrificed by CO2 asphyxiation and spleens are removed and a cell suspension is prepared. The cell suspension (1.0×10^7/metatarsal in 0.05 ml) is injected I.D. into the dorsal metatarsal skin of recipient mice. Four days later, the animals are sacrificed by CO2 asphyxiation and the popliteal nodes are removed and weighed. Groups of mice receiving putative immunosuppressive agents are dosed subcutaneously,intraperitoneally or orally one hour prior to cell injection and daily thereafter. The tests last approximately four days. The assay involves no footpad swelling and only a moderate increase in the size of the popliteal lymph node. Student's t test is used to determine significant differences between popliteal lymph nodes of groups of untreated mice and those mice treated with putative immunosuppressive agents.

[5] = tested on: IL-2 promoter; experiment: IL-2 promoter assay (luciferase reporter in Jurkat cells); assay type: cell-based; conditions: Homo sapiens; Jurkat luciferase reporter cells, ionomycin 1 μg/ml and PMA 10 ng/ml, 5 hr; read-out: IL-2 PROMOTER IC50
Excerpt: All the known regulatory features of IL-2 gene are contained within a ~300 bp sequence immediately upstream of the open reading frame. […] The resulting construct, pIL2P-luc, and a vector containing a neomycin resistance gene, pcDNA/Neo (Invitrogen), are linearized and stably transfected into Jurkat cells (a human T cell line) by electroporation.
For screening compounds, the cells are pelleted by centrifugation, washed once with PBS, resuspended in RPMI (phenol red-free) containing 5% FBS, and dispensed into 96-well, white microtiter plates (Packard) at 50,000 cells/well. The cells are pre-incubated with compounds (1 μg/ml) for 15 min prior to addition of ionomycin (1 μg/ml) and PMA (10 ng/ml) in a final volume of 100 μl. Following a 5 hr incubation at 37° C. in a humidified incubator, 100 μl of Luc-Lite lysis buffer/luciferase assay buffer (Promega) is added and luminescence measured using a Packard TopCount scintillation counter/luminometer.

IC50 [1] [µM] | IC50 [2] [µM] | IC50 [3] [µM] | IC50 [5] [µM] | Structure (SMILES) | ALLOGENEIC CELL TRANSPLANT % ([4]; 0.1 mg/kg) [%] | ALLOGENEIC CELL TRANSPLANT % ([4]; 1 mg/kg) [%]
0.5 | 0.3 | 3.4 | 0.23 | FC(F)(F)c1ccc(-c2cncc3[nH]c4ccccc4c23)cc1 [Compound 4, 4-(p-Trifluoromethylphenyl)-β-carboline] | 38 | 
0.3 | 1 | 4.2 | 1.09 | COc1ccc(-c2cncc3[nH]c4ccccc4c23)cc1 [Compound 5, 4-(p-Methoxyphenyl)-β-carboline] |  | 60
0.7 | 5 | 9.8 | 3 | COc1cccc(-c2cncc3[nH]c4ccccc4c23)c1 [Compound 7] |  | 49

Reference: patent US6093723A, “4-substituted beta-carbolines and analogs thereof” (Boehringer Ingelheim Pharmaceuticals, Inc., priority 1997, dated 2000)
